Measured values published in US12202821B2, “Herbicidal compounds” (SYNGENTA CROP PROTECTION AG, priority 2019, dated 2025).

Tests used:
Format in all cases: in vivo
AMAPA [1] = experiment: Pre-emergence biological efficacy; details: 312 h, evaluated after 13 days, read-out: damage to plant (100=total damage to plant; 0=no damage to plant), AMAPA
Method: (§1) Pre-Emergence Biological Efficacy
(§2) Seeds of weeds and/or crops were sown in standard soil in pots. After cultivation for one day under controlled conditions in a glasshouse (at 24/16° C., day/night; 14 hours light; 65% humidity), the plants were sprayed with an aqueous spray solution derived from the formulation of the technical active ingredient in acetone/water (50:50) solution containing 0.5% Tween 20 (polyoxyethylene sorbitan monolaurate, CAS RN 9005-64-5) to give the desired final dose of test compound.
(§3) The test plants were then grown under controlled conditions in the glasshouse (at 24/16° C., day/night; 14 hours light; 65% humidity) and watered twice daily. After 13 days the test was evaluated (100=total damage to plant; 0=no damage to plant).

LOLPE [2] = experiment: Pre-emergence biological efficacy; details: 312 h, evaluated after 13 days, read-out: damage to plant (100=total damage to plant; 0=no damage to plant), LOLPE
Method: as §1, §2, §3

ECHCG [3] = experiment: Pre-emergence biological efficacy; details: Echinochloa crus-galli, 312 h, evaluated after 13 days, read-out: damage to plant (100=total damage to plant; 0=no damage to plant), ECHCG
Method: as §1, §2, §3

IPOHE [4] = experiment: Pre-emergence biological efficacy; details: Ipomoea hederacea, 312 h, evaluated after 13 days, read-out: damage to plant (100=total damage to plant; 0=no damage to plant), IPOHE
Method: as §1, §2, §3

SETFA [5] = experiment: Pre-emergence biological efficacy; details: Setaria faberi, 312 h, evaluated after 13 days, read-out: damage to plant (100=total damage to plant; 0=no damage to plant), SETFA
Method: as §1, §2, §3

EPHHL [6] = experiment: Pre-emergence biological efficacy; details: 312 h, evaluated after 13 days, read-out: damage to plant (100=total damage to plant; 0=no damage to plant), EPHHL
Method: as §1, §2, §3

AMAPA [7] = experiment: Post-emergence biological efficacy; details: 312 h, evaluated after 13 days, read-out: damage to plant (100=total damage to plant; 0=no damage to plant), AMAPA
Method: (§4) Post-Emergence Biological Efficacy
as §2, with “8 days” for “one day”
(§5) The test plants were then grown on under controlled conditions in a glasshouse (at 24/16° C., day/night; 14 hours light; 65% humidity) and watered twice daily. After 13 days the test was evaluated (100=total damage to plant; 0=no damage to plant).

LOLPE [8] = experiment: Post-emergence biological efficacy; details: evaluated after 13 days; for pest or weed control at 250 g/ha: 312 h, read-out: damage to plant (100=total damage to plant; 0=no damage to plant), LOLPE
Method: as §4
as §2, with “8 days” for “one day”
as §5

ECHCG [9] = experiment: Post-emergence biological efficacy; details: Echinochloa crus-galli, 312 h, evaluated after 13 days, read-out: damage to plant (100=total damage to plant; 0=no damage to plant), ECHCG
Method: as §4
as §2, with “8 days” for “one day”
as §5

IPOHE [10] = experiment: Post-emergence biological efficacy; details: Ipomoea hederacea, 312 h, evaluated after 13 days, read-out: damage to plant (100=total damage to plant; 0=no damage to plant), IPOHE
Method: as §4
as §2, with “8 days” for “one day”
as §5

SETFA [11] = experiment: Post-emergence biological efficacy; details: Setaria faberi, 312 h, evaluated after 13 days, read-out: damage to plant (100=total damage to plant; 0=no damage to plant), SETFA
Method: as §4
as §2, with “8 days” for “one day”
as §5

ELEIN = experiment: Post-emergence biological efficacy; details: 312 h, evaluated after 13 days, read-out: damage to plant (100=total damage to plant; 0=no damage to plant), ELEIN
Method: as §4
as §2, with “8 days” for “one day”
as §5

EPHHL [12] = experiment: Post-emergence biological efficacy; details: 312 h, evaluated after 13 days, read-out: damage to plant (100=total damage to plant; 0=no damage to plant), EPHHL
Method: as §4
as §2, with “8 days” for “one day”
as §5

DIGSA = experiment: Post-emergence biological efficacy; details: Digitaria sanguinalis, 312 h, evaluated after 13 days, read-out: damage to plant (100=total damage to plant; 0=no damage to plant), DIGSA
Method: as §4
as §2, with “8 days” for “one day”
as §5

CHEAL = experiment: Post-emergence biological efficacy; details: Chenopodium album, 312 h, evaluated after 13 days, read-out: damage to plant (100=total damage to plant; 0=no damage to plant), CHEAL
Method: as §4
as §2, with “8 days” for “one day”
as §5

SMILES	pest or weed control at 250 g/ha (AMAPA [1])	pest or weed control at 250 g/ha (LOLPE [2])	pest or weed control at 250 g/ha (ECHCG [3])	pest or weed control at 250 g/ha (IPOHE [4])	pest or weed control at 250 g/ha (SETFA [5])	pest or weed control at 250 g/ha (EPHHL [6])	pest or weed control at 250 g/ha (AMAPA [7])	pest or weed control at 250 g/ha (LOLPE [8])	pest or weed control at 250 g/ha (ECHCG [9])	pest or weed control at 250 g/ha (IPOHE [10])	pest or weed control at 250 g/ha (SETFA [11])	pest or weed control at 250 g/ha (ELEIN)	pest or weed control at 250 g/ha (EPHHL [12])	pest or weed control at 250 g/ha (DIGSA)	pest or weed control at 250 g/ha (CHEAL)	damage to plant (100=total damage to plant; 0=no damage to plant), LOLPE (LOLPE [8]; 250 g/ha)
CC(=O)C1(C)CC(c2cc(-n3c(=O)n(C)c(=S)n(C)c3=O)c(F)cc2Cl)=NO1 (stereo not drawn) [Compound 290, 3-[5-(5-Acetyl-5-methyl-4H-isoxazol-3-yl)-4-chloro-2-fluoro-phenyl]-1,5-dimethyl-6-thioxo-1,3,5-triazinane-2,4-dione]	100%	90%	90%	100%	100%	100%	100%	90%	90%	100%	90%	100%	100%	100%	100%	
CCOC(=O)C1(C)CC(c2cc(-n3c(=O)n(C)c(=S)n(C)c3=O)c(F)cc2Cl)=NO1 (stereo not drawn) [Compound 47, ethyl 3-[2-chloro-5-(3,5-dimethyl-2,6-dioxo-4-thioxo-1,3,5-triazinan-1-yl)-4-fluoro-phenyl]-5-methyl-4H-isoxazole-5-carboxylate]	100%	70%	100%	100%	100%	100%	100%	100%	100%	100%	100%	100%	100%	100%	100%	
CN(C)S(=O)(=O)NC(=O)C1(C)CC(c2cc(-n3c(=O)n(C)c(=S)n(C)c3=O)c(F)cc2Cl)=NO1 (stereo not drawn) [Compound 305, 3-[2-Chloro-5-(3,5-dimethyl-2,6-dioxo-4-thioxo-1,3,5-triazinan-1-yl)-4-fluoro-phenyl]-N-(dimethylsulfamoyl)-5-methyl-4H-isoxazole-5-carboxamide]	100%	30%	30%	80%	90%	60%	100%	100%	100%	100%	100%	100%	100%	100%	100%	
CO/N=C(\C)C1(C)CC(c2cc(-n3c(=O)n(C)c(=S)n(C)c3=O)c(F)cc2Cl)=NO1 (stereo not drawn) [Compound 293]	100%	90%	90%	50%	100%	100%	100%	60%	30%	100%	90%	90%	100%	100%	100%	
CCOC(=O)C1(C)CC(c2cc(-n3c(=O)n(C)c(=S)n(C)c3=O)c(F)cc2Cl)=NO1 (single isomer, unassigned) [Compound 47 (enantiomer B)]	100%	40%	50%	80%	100%	100%	100%		100%	100%	100%	100%	100%	100%	100%	100
CC(=O)OCC1(C)CC(c2cc(-n3c(=O)n(C)c(=S)n(C)c3=O)c(F)cc2Cl)=NO1 (stereo not drawn) [Compound 51, [3-[2-Chloro-5-(3,5-dimethyl-2,6-dioxo-4-thioxo-1,3,5-triazinan-1-yl)-4-fluoro-phenyl]-5-methyl-4H-isoxazol-5-yl]methyl acetate]	100%	90%	90%	80%	100%	100%	100%	50%	30%	90%	100%	80%	100%	100%	100%	
COC(=O)C1(OC)CC(c2cc(-n3c(=O)n(C)c(=S)n(C)c3=O)c(F)cc2Cl)=NO1 (stereo not drawn) [Compound 311, Methyl 3-[2-chloro-5-(3,5-dimethyl-2,6-dioxo-4-thioxo-1,3,5-triazinan-1-yl)-4-fluoro-phenyl]-5-methoxy-4H-isoxazole-5-carboxylate]	100%	10%	10%	70%	90%	50%	90%	50%	90%	90%	100%	90%	90%	80%	90%	
Cn1c(=S)n(C)c(=O)n(-c2cc(C3=NOC(C)(C(=O)O)C3)c(Cl)cc2F)c1=O (stereo not drawn) [Compound 45, 3-[2-chloro-5-(3,5-dimethyl-2,6-dioxo-4-thioxo-1,3,5-triazinan-1-yl)-4-fluoro-phenyl]-5-methyl-4H-isoxazole-5-carboxylic acid]	100%	100%	100%	100%	100%	100%	100%	100%	100%	100%	100%	100%	100%	100%	100%	
